In patent publication US5326774A, “Pharmaceutical preparation of antihypertensive, antianginal, antiarrhythmic and antiglaucomic action” (priority 1992, dated 1994):
Entries after “also recorded” stand apart in the source; their conditions may differ. Where two headings read alike, the source gives them in different places.

Legend:
coronary vessels = assay: Coronary vessel dilatation and myocardial perfusion in anesthetized rats; assay type: in vivo, rat; details: 0.1 mg/kg i.v. (compound of the invention); hydrochloride
Excerpt: The coronarodilative effect of the compound according to the invention is not associated with its β- and α-adrenoceptor blocking activity and its influence on the systemic perfusion pressure and pump function of the heart. […]

myocardium necrosis = assay: Myocardium necrosis in rats with labile coronary occlusion; assay type: in vivo, rat; details: for Mass and size myocardium (% to the total area of aortic ventricle): control 31.2 ± 1.96; for Area of myocardium necrosis (% to the total area of aortic ventricle): control 33.5 ± 2.5
[1] = tested on: mesaton-initiated pressor effect; assay: Mesaton-initiated pressor effect in cats; design: species or system cat; details: in vivo (rats and cats), i.v.
Description: The same tests were carried out on cats.

β2-adrenoceptor = molecular target: T1, β2-adrenoceptor (Rattus norvegicus, UniProt P10608); assay: Inhibition of isadrin's depressor effect, i.v., anesthetized rats; assay type: in vivo
T1 construct: positive chronotropic and depressor effects in the anesthetized rats; from tissue; host or cells: whole living rat (blood pressure response to isadrin); endogenous receptor
T1 sequence (P10608 whole entry): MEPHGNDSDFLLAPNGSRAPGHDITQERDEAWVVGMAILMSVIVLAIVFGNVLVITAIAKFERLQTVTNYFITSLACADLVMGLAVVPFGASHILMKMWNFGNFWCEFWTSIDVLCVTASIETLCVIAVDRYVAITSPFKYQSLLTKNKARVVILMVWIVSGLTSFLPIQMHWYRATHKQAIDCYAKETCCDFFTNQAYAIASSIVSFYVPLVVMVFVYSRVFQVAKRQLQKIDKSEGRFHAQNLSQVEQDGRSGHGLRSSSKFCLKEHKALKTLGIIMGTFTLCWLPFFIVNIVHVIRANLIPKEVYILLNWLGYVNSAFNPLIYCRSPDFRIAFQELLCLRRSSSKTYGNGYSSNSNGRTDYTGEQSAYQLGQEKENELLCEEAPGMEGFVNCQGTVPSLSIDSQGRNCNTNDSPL

in vivo = details: mouse
Description: LD50 values were estimated by using the Litchfield-Wilckoxon method.

arterial pressure [2] = assay: Arterial pressure in anesthetized rats, i.v.; assay type: in vivo, rat; details: for arterial pressure: control 159±9
Description: β-adrenoceptor blocking activity of the active principle of the pharmaceutical preparation of the invention was studied. […]. The test substances were injected to several groups of animals (6-10 individuals each) in the graded doses of 0.001, 0.0025, 0.01, 0.025, and 0.1 mg/kg.
From the dosage of […] it gave rise to the lowering of arterial pressure (from 159±9 in the control to 141±11, 127±10 and 123 ±11 mm Hg in the dosages of 0.01, 0.025 and 0.1 mg/kg). From the dosage of 0.0025 mg/kg the compound of the invention gave rise to the dose-related suppression of the isadrin-initiated depressor effect (by 12,63, 82 and 90% in doses of 0.0025, 0.01, 0.025 and 0.1 mg/kg) and, starting from the dosage of […], a positive chronotropic (by 25, 46 and 78% in doses of 0.01, 0.025 said 0.1 mg/kg, respectively) effect.

arterial pressure [3] = assay: Arterial pressure and heart rate in conscious normotensive rats, oral; assay type: in vivo, rat; details: 10 and 50 mg/kg oral, 1 hour
arterial pressure [4] = assay: Antihypertensive effect in rats with spontaneous hypertension; assay type: in vivo, rat
β1-adrenoceptor [5] = molecular target: T2, β1-adrenoceptor (Rattus norvegicus, UniProt P18090); assay: Oral administration, isadrin-initiated positive chronotropism in rats; assay type: in vivo
T2 construct: positive chronotropic and depressor effects in the anesthetized rats; from tissue; host or cells: whole living rat (heart rate response to isadrin); endogenous receptor
T2 sequence (P18090 whole entry): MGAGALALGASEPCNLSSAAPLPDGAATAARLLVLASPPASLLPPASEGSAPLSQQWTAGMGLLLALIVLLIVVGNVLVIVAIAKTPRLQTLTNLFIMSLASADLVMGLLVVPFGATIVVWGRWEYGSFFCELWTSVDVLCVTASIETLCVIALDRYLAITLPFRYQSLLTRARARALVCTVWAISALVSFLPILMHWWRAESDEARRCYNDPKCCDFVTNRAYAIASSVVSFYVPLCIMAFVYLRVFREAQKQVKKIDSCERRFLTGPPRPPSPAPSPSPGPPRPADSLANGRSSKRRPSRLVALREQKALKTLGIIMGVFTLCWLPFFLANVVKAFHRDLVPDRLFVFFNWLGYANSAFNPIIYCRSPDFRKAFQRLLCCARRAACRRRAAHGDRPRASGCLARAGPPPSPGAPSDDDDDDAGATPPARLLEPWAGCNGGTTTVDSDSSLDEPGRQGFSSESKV
Description: The effects of oral administration of the compound according to the invention as compared with the known drugs on the isadrin-initiated positive chronotropism in rats were tested.

[6] = tested on: electrically induced ventricular fibrillation; assay: Threshold of electrically induced ventricular fibrillation in anesthetized cats; assay type: in vivo, cat
[7] = tested on: strophantin-induced arrhythmia; assay type: in vivo, guinea pig
β-adrenoceptor [8] = assay: Partial agonistic activity and non-specific membrane-stabilizing effect
β-adrenoceptor [9] = assay: β-adrenoceptor blocking effect duration; details: in vivo
[10] = Solubility of the active principle; assay type: physicochemical
ventricular fibrillation = assay: Ventricular fibrillation during acute coronary occlusion and reperfusion in anesthetized dogs; assay type: in vivo, dog; details: single animals, hydrochloride
β1-adrenoceptor [11] = molecular target: T2, β1-adrenoceptor; assay: Inhibition of isadrin's positive chronotropic effect, i.v., anesthetized rats; assay type: in vivo
β1-adrenoceptor [12] = assay: Isadrin's positive chronotropic effect, i.v., anesthetized cats; assay type: in vivo, cat
Excerpt: The influence of intravenous injection of the compound according to the invention as compared with the known drugs on […] positive chronotropic and depressor effects in the anesthetized cats was studied.

arterial pressure [13] = assay: Antihypertensive effect in rats with renovascular hypertension; assay type: in vivo, rat
Description: . In rats suffering from renovascular hypertension the compound of the invention in the dosage of 10 mg/kg (injected intramuscularly) lowered with confidence the arterial pressure (from 137±3 to 117±5 mm of Hg column) 30 minutes after being administered. The 2-week course of the administration of the compound according to the invention (10 mg/kg 1 time a day) caused the antihypertensive effect to be enhanced. By the end of the second week the arterial pressure was 110±8.6 mm Hg. […]

Cc1noc(COc2ccccc2OCC(O)CNC(C)(C)C)n1.Cl (stereo not shown) [Compound of the invention, 3-methyl-5-[2-(3-tert.butylamino-2-hydroxypropoxy)phenoxymethyl]-1,2,4-oxadiazole hydrochloride]
coronary vessel dilatation / myocardial perfusion (coronary vessels): dilatation (with confidence) of coronary vessels; also recorded: direct coronarodilating effect
Mass and size myocardium (% to the total area of aortic ventricle) (myocardium necrosis; 1 mg/kg): 31.5%
Area of myocardium necrosis (% to the total area of aortic ventricle) (myocardium necrosis; 1 mg/kg): 30%
aortic ventricle necrosis in mass and size (myocardium necrosis; 5 mg/kg i.v.): decreasing in the aortic ventricle necrosis in mass and size
Mass and size myocardium (% to the total area of aortic ventricle) (myocardium necrosis; 5 mg/kg, P < 0.05): 23.6 ± 3.2%
Area of myocardium necrosis (% to the total area of aortic ventricle) (myocardium necrosis; 5 mg/kg, P < 0.05): 24.3 ± 3.4%
adrenoceptor blocking activity compared with labetalol [1]: did not differ from labetalol
suppression of the isadrin-initiated depressor effect (β2-adrenoceptor; 0.025 mg/kg i.v.): 82%
suppression of the isadrin-initiated depressor effect (β2-adrenoceptor; 0.1 mg/kg i.v.): 90%
β2-adrenoceptor blocking activity, times as high as labetalol (β2-adrenoceptor; comparison of ED50, rats i.v.): 412 times
β2-adrenoceptor blocking activity, times as high as oxprenolol (β2-adrenoceptor; comparison of ED50, rats i.v.): 4 times
β2-adrenoceptor blocking activity, times as high as pindolol (β2-adrenoceptor; comparison of ED50, rats i.v.): 2 times
β2-adrenoceptor blocking activity, times as high as propranolol (β2-adrenoceptor; comparison of ED50, rats i.v.): 11 times
dosage from which isadrin depressor effect suppressed (β2-adrenoceptor; i.v.): 0.0025 mg/kg
ED50 (β2-adrenoceptor; rat, iv, read-out: Dosage inhibiting isadrin's depressor effect by 50%, ED50): 0.008 ± 0.0007 mg/kg
LD50 at 72 h (in vivo; iv): 72.5 mg/kg
LD50 at 72 h (in vivo; po): 600 mg/kg
arterial pressure (arterial pressure [2]; 0.01 mg/kg i.v.): 141±11 mm Hg
arterial pressure (arterial pressure [2]; 0.025 mg/kg i.v.): 127±10 mm Hg
arterial pressure (arterial pressure [2]; 0.1 mg/kg i.v.): 123 ±11 mm Hg
minimal effective dose (arterial pressure [2]; Rattus norvegicus, iv, read-out: dosage from which arterial pressure lowered): 0.1 mg/kg
arterial pressure (arterial pressure [3]): arterial pressure lowering
heart rate (arterial pressure [3]): a decrease in heart rate
hypotensive and antihypertensive properties (arterial pressure [4]): shows hypotensive and antihypertensive properties
β1-adrenoceptor blocking activity compared with pindolol (β1-adrenoceptor [5]): inferior to pindolol
β1-adrenoceptor blocking activity, superior to labetalol by (β1-adrenoceptor [5]): 35 times
β1-adrenoceptor blocking activity, superior to propranolol by (β1-adrenoceptor [5]): 14.8 times
threshold of electrically induced ventricular fibrillation ([6]; 1 mg/kg): did not change
threshold of electrically induced ventricular fibrillation ([6]; 5 mg/kg): increased considerably this threshold
value of increasing threshold compared with propranolol and oxprenolol ([6]; 5 mg/kg): higher
antiarrhythmic activity and efficacy (ventricular fibrillation threshold, strophanthin arrhythmia) ([6]; compared with propranolol, oxprenolol, pindolol and labetalol): superior to propranolol, oxprenolol, pindolol and labetalol
Arrhythmogenic dose of strophantin as compared with control: extrasystoles ([7]; 0.1 mg/kg i.v.): 118%
Dose of strophantin as compared with control: ventricular fibrillation ([7]; 0.1 mg/kg i.v.): 115.6%
Lethal dose of strophantin as compared with control: animal death ([7]; 0.1 mg/kg i.v.): 118.7%
Arrhythmogenic dose of strophantin as compared with control: extrasystoles ([7]; 0.3 mg/kg i.v.): 125.9%
Dose of strophantin as compared with control: ventricular fibrillation ([7]; 0.3 mg/kg i.v.): 113.1%
Lethal dose of strophantin as compared with control: animal death ([7]; 0.3 mg/kg i.v.): 123.5%
Arrhythmogenic dose of strophantin as compared with control: extrasystoles ([7]; 1.0 mg/kg i.v.): 148.2%
Dose of strophantin as compared with control: ventricular fibrillation ([7]; 1.0 mg/kg i.v.): 147.2%
Lethal dose of strophantin as compared with control: animal death ([7]; 1.0 mg/kg i.v.): 142.6%
Arrhythmogenic dose of strophantin as compared with control: extrasystoles ([7]; 3.0 mg/kg i.v.): 157.0%
Dose of strophantin as compared with control: ventricular fibrillation ([7]; 3.0 mg/kg i.v.): 170.2%
Lethal dose of strophantin as compared with control: animal death ([7]; 3.0 mg/kg i.v.): 150.7%
antiarrhythmic activity and efficacy ([7]; 0.1-3.0 mg/kg i.v.): superior to propranolol, oxprenolol and labetalol
non-specific membrane-stabilizing effect (β-adrenoceptor [8]): has a non-specific membrane-stabilizing effect
partial agonistic activity (β-adrenoceptor [8]): fails to exhibit a partial agonistic activity
β-adrenoceptor blocking effect duration (β-adrenoceptor [9]): somewhat superior to propranolol and oxprenolol
solubility in ethyl ether [10]: substantially insoluble
solubility in water, chloroform, ethanol [10]: readily soluble
Ventricular fibrillation during acute occlusion and reperfusion (ventricular fibrillation; 10 min after injection): R
Ventricular fibrillation during acute occlusion and reperfusion (ventricular fibrillation; 60 min after injection): R
suppression of isadrin positive chronotropic effect (β1-adrenoceptor [11]; 0.01 mg/kg i.v.): 25%
suppression of isadrin positive chronotropic effect (β1-adrenoceptor [11]; 0.025 mg/kg i.v.): 46%
suppression of isadrin positive chronotropic effect (β1-adrenoceptor [11]; 0.1 mg/kg i.v.): 78%
β1-adrenoceptor blocking activity compared with pindolol (β1-adrenoceptor [11]; comparison of ED50, rats i.v.): close to pindolol
β1-adrenoceptor blocking activity, factor over labetalol (β1-adrenoceptor [11]; comparison of ED50, rats i.v.): 23
β1-adrenoceptor blocking activity, factor over oxprenolol (β1-adrenoceptor [11]; comparison of ED50, rats i.v.): 9
β1-adrenoceptor blocking activity, factor over propranolol (β1-adrenoceptor [11]; comparison of ED50, rats i.v.): 12
dosage from which isadrin positive chronotropic effect suppressed (β1-adrenoceptor [11]; i.v.): 0.1 mg/kg
ED50 (β1-adrenoceptor [11]; rat, iv, read-out: Dosage inhibiting isadrin's positive chronotropism by 50% (ED50)): 0.03 ± 0.001 mg/kg
β1-adrenoceptor blocking activity compared with pindolol (β1-adrenoceptor [12]): close to pindolol
β1-adrenoceptor blocking activity, factor over labetalol (β1-adrenoceptor [12]): 550
β1-adrenoceptor blocking activity, factor over oxprenolol (β1-adrenoceptor [12]): 35
β1-adrenoceptor blocking activity, factor over propranolol (β1-adrenoceptor [12]): 3.5
arterial pressure (arterial pressure [13]; 10 mg/kg 1 time a day, end of second week): 110±8.6 mm Hg
arterial pressure (arterial pressure [13]; 10 mg/kg i.m., 30 minutes, from 137±3): 117±5 mm of Hg column
efficacy on long-time use (arterial pressure [13]; long time use): its efficacy is not becoming low (no drug addiction)
